{"source": "patent US3988316A", "about": "“Antibiotics sisomicin and verdamicin I and complex containing same” (Schering Corporation, priority 1975, dated 1976)", "key": {"Escherichia coli 10536": {"tested_on": "Escherichia coli 10536", "test": "Protective Activity in Mice", "type": "in vivo", "settings": "S.C., single dose one hour after intraperitoneal infection", "method": "(§1) Verdamicin I was tested against four (4) species of infectious bacteria in mice and was administered as a single subcutaneous dose one (1) hour after infection via intraperitoneal injection of a lethal quantity of pathogen.\n(§2) Results obtained with gentamicin are set for comparison."}, "[1]": {"tested_on": "Pseudomonas aeruginosa 8689", "test": "Protective Activity in Mice", "type": "in vivo", "settings": "S.C., single dose one hour after intraperitoneal infection", "method": "as §1, §2"}, "[2]": {"tested_on": "Staphylococcus aureus Gray", "test": "Protective Activity in Mice", "type": "in vivo", "settings": "S.C., single dose one hour after intraperitoneal infection", "method": "as §1, §2"}, "Streptococcus pyogenes C": {"tested_on": "Streptococcus pyogenes C", "test": "Protective Activity in Mice", "type": "in vivo", "settings": "S.C., single dose one hour after intraperitoneal infection", "method": "as §1, §2"}, "in vivo": {"test": "in vivo", "settings": "mouse, iv"}, "[3]": {"test": "pKa (Chemical and Physical Properties of Verdamicin I)", "type": "physicochemical", "settings": "base", "from_the_text": "In table VI below are set forth physical properties of […] as the hydrated free nitrogen base and as the sulfuric acid addition salt (sulfate)."}, "[4]": {"tested_on": "gram positive and gram-negative bacteria", "test": "In vitro antibacterial activity, Verdamicin I (in words)", "type": "cell-based"}, "[5]": {"tested_on": "gram-positive and gram-negative organisms", "test": "In vivo antibacterial activity in mice (in words)", "method": "as §1, §2"}, "[6]": {"tested_on": "Staphylococcus aureus ATCC 6538P", "test": "Disc plate microbiological assay", "description": "Th microbiological assay of the antibiotic substances is a disc plate assay using Staphylococcus aureus ATCC 6538P as test organism."}}, "note": "Structures can show the parent of a compound that is named as a salt.", "data": [{"compound": "gentamicin [reference compound]", "values": [{"measurement": "PD50", "setting": "Escherichia coli 10536", "value": 1.7, "unit": "mg/kg"}, {"measurement": "PD50", "setting": "[1]", "value": 1.7, "unit": "mg/kg"}, {"measurement": "PD50", "setting": "[2]", "value": 2.4, "unit": "mg/kg"}, {"measurement": "PD50", "setting": "Streptococcus pyogenes C", "value": 5.0, "unit": "mg/kg"}]}, {"compound": "CN[C@@H]1[C@@H](O)[C@@H](O[C@@H]2[C@@H](O)[C@H](O[C@H]3OC(C(C)N)=CC[C@H]3N)[C@@H](N)C[C@H]2N)OC[C@]1(C)O", "note": "(stereo partly drawn) [Verdamicin I]", "values": [{"measurement": "ED50", "setting": "Escherichia coli 10536; Escherichia coli, 10536, sc, 1 h, read-out: PD50", "value": 1.5, "unit": "mg/kg"}, {"measurement": "ED50", "setting": "[1]; Pseudomonas aeruginosa, 8689, sc, 1 h, read-out: PD50", "value": 2, "unit": "mg/kg"}, {"measurement": "ED50", "setting": "[2]; Staphylococcus aureus, sc, 1 h, read-out: PD50", "value": 2.5, "unit": "mg/kg"}, {"measurement": "ED50", "setting": "Streptococcus pyogenes C; Streptococcus pyogenes, sc, 1 h, read-out: PD50", "value": 1, "unit": "mg/kg"}, {"measurement": "LD50", "setting": "in vivo", "value": 75, "unit": "mg/kg"}, {"measurement": "pKa", "setting": "[3]", "value": 8.1}, {"measurement": "antibacterial activity in vitro", "setting": "[4]", "value": "broad spectrum of antibacterial activity"}, {"measurement": "in vivo antibacterial activity", "setting": "[5]", "value": "potent antibacterial agent"}, {"measurement": "dose response curve", "setting": "[6]; gentamicin assay", "value": "parallel to that of gentamicin"}, {"measurement": "zone of inhibition", "setting": "[6]; one meg. of standard", "value": "17.0 ± 1.3", "unit": "mm"}]}, {"compound": "CN[C@@H]1[C@@H](O)[C@@H](O[C@@H]2[C@@H](O)[C@H](O[C@H]3OC(C(C)N)=CC[C@H]3N)[C@@H](N)C[C@H]2N)OC[C@]1(C)O", "note": "(stereo partly drawn) [Verdamicin I Sulfate]", "values": [{"measurement": "potency against its own base as the comparison standard", "setting": "[6]; own base as comparison standard", "value": 695, "unit": "meg/mg"}]}]}
